From ChEMBL document CHEMBL1201862, “PubChem BioAssay data set” (2004)
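Interpolation was linear, between the two tested concentrations surrounding the appropriate level; five concentrations were tested over 48 hours in 96-well plates. GI50 marks 50% less growth.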 The source made the active and inactive calls. No stated cut-off is given here; in the data, active = GI50 up to about 1.1 µM and inactive = higher.

How the values were obtained:
Experiment in all cases: NCI-60 cell line screen, 48 h
EKVX = test system: EKVX
NCI-H23 = test system: NCI-H23
OVCAR-8 = test system: OVCAR-8
SK-MEL-5 = test system: SK-MEL-5
SNB-19 = test system: SNB-19
SW-620 = test system: SW-620
T47D = test system: T47D
HCT-116 = test system: HCT-116
MDA-MB-231 = test system: MDA-MB-231
MDA-MB-435 = test system: MDA-MB-435
SK-MEL-2 = test system: SK-MEL-2
SF-295 = test system: SF-295
HT-29 = test system: HT-29
RPMI-8226 = test system: RPMI-8226
PC-3 = test system: PC-3
UACC-257 = test system: UACC-257
SK-MEL-28 = test system: SK-MEL-28
U-251 = test system: U-251
MOLT-4 = test system: MOLT-4

Row | Structure (SMILES) | GI50 (EKVX) | GI50 (NCI-H23) | GI50 (OVCAR-8) | GI50 (SK-MEL-5) | GI50 (SNB-19) | GI50 (SW-620) | GI50 (T47D) | GI50 (HCT-116) | GI50 (MDA-MB-231) | GI50 (MDA-MB-435) | GI50 (SK-MEL-2) | GI50 (SF-295) | GI50 (HT-29) | GI50 (RPMI-8226) | GI50 (PC-3) | GI50 (UACC-257) | GI50 (SK-MEL-28) | GI50 (U-251) | GI50 (MOLT-4)
1 | O=c1c2ccccc2c2ccccc2c(=O)n1-c1cc2c3ccccc3ccc2c2ccccc12 | > 100 µM (inactive) | > 100 µM (inactive) | > 100 µM (inactive) | > 100 µM (inactive) | > 100 µM (inactive) | > 100 µM (inactive) | > 100 µM (inactive) | > 100 µM (inactive) | > 100 µM (inactive) | > 100 µM (inactive) | > 100 µM (inactive) | > 100 µM (inactive) | > 100 µM (inactive) | 60.3 µM (inactive) | > 100 µM (inactive) | > 100 µM (inactive) | > 100 µM (inactive) | > 100 µM (inactive) | 
2 | CC1OC(OC2C(O[C@H]3CC[C@@]4(C)C(=CC[C@H]5[C@@H]6C[C@@H]7O[C@]8(CC[C@@H](C)CO8)[C@@H](C)[C@@H]7[C@@]6(C)CC[C@@H]54)C3)OC(CO)C(O)C2OC2OC(CO)C(O)C(O)C2O)C(O)C(O)C1O (some centres not stated) | 12.4 µM (inactive) | 1.89 µM (inactive) | 3.19 µM (inactive) | 2.04 µM (inactive) | 1.87 µM (inactive) | 0.205 µM (active) | 2.31 µM (inactive) | 2.58 µM (inactive) | 1.47 µM (inactive) | 1.81 µM (inactive) | 1.72 µM (inactive) | 2.14 µM (inactive) | 14.7 µM (inactive) | 2.54 µM (inactive) | 1.87 µM (inactive) | 1.86 µM (inactive) | 1.9 µM (inactive) | 1.89 µM (inactive) | 
3 | O[C@@H]1C[C@@H]2N[C@@](O)(C[C@@H]2O)[C@H]1O | > 100 µM (inactive) | > 100 µM (inactive) | > 100 µM (inactive) | > 100 µM (inactive) | > 100 µM (inactive) | > 100 µM (inactive) | > 100 µM (inactive) | > 100 µM (inactive) | > 100 µM (inactive) | > 100 µM (inactive) |  | > 100 µM (inactive) | > 100 µM (inactive) | > 100 µM (inactive) | > 100 µM (inactive) | > 100 µM (inactive) | > 100 µM (inactive) | > 100 µM (inactive) | > 100 µM (inactive)
4 | O=S(=O)(Nc1nc2ccccc2nc1Nc1cccc2ccccc12)c1ccccc1 | 8.97 µM (inactive) | 5.53 µM (inactive) | 20.7 µM (inactive) | 10.7 µM (inactive) | 20.1 µM (inactive) | 25.8 µM (inactive) | 5.26 µM (inactive) | 17.7 µM (inactive) | 13.6 µM (inactive) | > 100 µM (inactive) | 18.9 µM (inactive) | 6.17 µM (inactive) |  | 2.73 µM (inactive) | 6.46 µM (inactive) | 39.4 µM (inactive) | 25.9 µM (inactive) | 5.52 µM (inactive) | 
5 | CC1(C)C(CCO)CC1n1cc(I)c(=O)[nH]c1=O (configuration not stated) | > 100 µM (inactive) |  |  | > 100 µM (inactive) | > 100 µM (inactive) | > 100 µM (inactive) | > 100 µM (inactive) | > 100 µM (inactive) | 86.3 µM (inactive) | > 100 µM (inactive) | > 100 µM (inactive) | > 100 µM (inactive) |  | > 100 µM (inactive) | > 100 µM (inactive) | > 100 µM (inactive) | > 100 µM (inactive) | 75.3 µM (inactive) | > 100 µM (inactive)
6 | N/N=C1\C(OC(=O)Nc2ccccc2)=Nc2ccccc21 | 18.2 µM (inactive) | 15.1 µM (inactive) | 12.1 µM (inactive) | 14.2 µM (inactive) | 26.8 µM (inactive) | 31.9 µM (inactive) | 10.9 µM (inactive) | 14.2 µM (inactive) | 18.6 µM (inactive) | 14.4 µM (inactive) | 19.7 µM (inactive) | 14 µM (inactive) | 30.5 µM (inactive) | 10.3 µM (inactive) | 15.4 µM (inactive) | 29.7 µM (inactive) | 60 µM (inactive) | 16 µM (inactive) | 
7 | O=S(=O)([C-]([I+]c1ccccc1)S(=O)(=O)C(F)(F)C(F)(F)C(F)(F)C(F)(F)F)C(F)(F)C(F)(F)C(F)(F)C(F)(F)F | 13.5 µM (inactive) | 19.1 µM (inactive) | > 10 µM (inactive) | 14.4 µM (inactive) | 15.2 µM (inactive) | 5.69 µM (inactive) | 11.1 µM (inactive) |  | 24.1 µM (inactive) | 19.3 µM (inactive) |  | 16.6 µM (inactive) | 17.4 µM (inactive) | 3.54 µM (inactive) | 17.2 µM (inactive) | 17.6 µM (inactive) | 15.8 µM (inactive) | 14.4 µM (inactive) | 3.51 µM (inactive)
